{"source": "paper PMC12040169", "about": "(PLOS Biology, 2025)"}
{"assay": "in vitro", "conditions": "human, hela cells, % viability", "units": {"viability at 28.5 h, 10 µM": "%"}}
{"smiles": "Cc1ccc(OCC(=O)Nc2cccnc2)c(-n2nc3ccccc3n2)c1", "note": "[CBK270281]", "viability at 28.5 h, 10 µM": 90.9}
{"smiles": "Cc1ccc(Cl)cc1N1CCN(S(=O)(=O)N(C)C)CC1", "note": "[CBK270284]", "viability at 28.5 h, 10 µM": 101}
{"smiles": "CN1C(=O)C2(N=C(N)NC(Nc3ccc(F)cc3)=N2)c2ccccc21", "note": "(centres unmarked) [CBK270285]", "viability at 28.5 h, 10 µM": 94.8}
{"smiles": "COc1ccc(-c2noc(CN(C)C(=O)c3cccs3)n2)cc1", "note": "[CBK270286]", "viability at 28.5 h, 10 µM": 89.6}
{"smiles": "CCOc1ccc(S(=O)(=O)N2CCC(C(=O)N3CCOCC3)CC2)cc1Cl", "note": "[CBK270288]", "viability at 28.5 h, 10 µM": 93.8}
{"smiles": "CCn1c(SCC(N)=O)nnc1C(C)Oc1ccc(C)c(C)c1", "note": "(centres unmarked) [CBK270289]", "viability at 28.5 h, 10 µM": 88.4}
{"smiles": "Cc1ccnc(SCc2ccc(F)cc2Cl)n1", "note": "[CBK270290]", "viability at 28.5 h, 10 µM": 87.4}
{"smiles": "c1ccc(SCc2csc(-c3ccc4c(c3)OCO4)n2)nc1", "note": "[CBK270294]", "viability at 28.5 h, 10 µM": 87.7}
{"smiles": "CCN1CCN(C(=O)C2CC=CCC2C(=O)O)CC1", "note": "(centres unmarked) [CBK270295]", "viability at 28.5 h, 10 µM": 91.6}
{"smiles": "O=S(=O)(c1ccc(Cl)s1)N1CCN(c2ccccn2)CC1", "note": "[CBK270305]", "viability at 28.5 h, 10 µM": 110}
{"smiles": "CCn1cc(S(=O)(=O)NCc2ccccc2F)cn1", "note": "[CBK270306]", "viability at 28.5 h, 10 µM": 91.6}
{"smiles": "COc1ccc(C(C)NC(=O)C2CCCCC2C(=O)O)cc1OC", "note": "(centres unmarked) [CBK270309]", "viability at 28.5 h, 10 µM": 91.1}
{"smiles": "CCN1CCN(C(=O)C2CC(C)=C(C)CC2C(=O)O)CC1", "note": "(centres unmarked) [CBK270311]", "viability at 28.5 h, 10 µM": 87.1}
{"smiles": "CCc1c(C)sc(NC(=O)CSc2nnnn2C)c1C(=O)OC", "note": "[CBK270312]", "viability at 28.5 h, 10 µM": 90.7}
{"smiles": "CCOc1ccc(S(=O)(=O)Nc2cnccn2)cc1", "note": "[CBK270313]", "viability at 28.5 h, 10 µM": 121}
{"smiles": "CCc1ccc(NS(=O)(=O)c2cnn(CC)c2)cc1", "note": "[CBK270314]", "viability at 28.5 h, 10 µM": 101}
{"smiles": "CCCCS(=O)(=O)N1CCN(CCc2ccccc2)CC1", "note": "[CBK270316]", "viability at 28.5 h, 10 µM": 87.3}
{"smiles": "CC(NC(=O)c1ccc(F)cc1Cl)c1ccccc1", "note": "(centres unmarked) [CBK270317]", "viability at 28.5 h, 10 µM": 89.3}
{"smiles": "O=C(O)C1C2C=CC(C2)C1C(=O)N1CCN(Cc2ccc(Cl)cc2)CC1", "note": "(centres unmarked) [CBK270318]", "viability at 28.5 h, 10 µM": 83.8}
{"smiles": "O=C(NC1CC1)c1ccsc1NC(=O)C1C2C=CC(C2)C1C(=O)O", "note": "(centres unmarked) [CBK270322]", "viability at 28.5 h, 10 µM": 98.7}
{"smiles": "COc1cc(NC(=O)Nc2ccccc2OC)c(OC)cc1Cl", "note": "[CBK270329]", "viability at 28.5 h, 10 µM": 95.7}
{"smiles": "CCNS(=O)(=O)c1ccc(NC(=O)Nc2ccccc2OC)cc1", "note": "[CBK270331]", "viability at 28.5 h, 10 µM": 87.8}
{"smiles": "O=C(NCCN1CCCCC1)c1cccc(Oc2ccccc2)c1", "note": "[CBK270335]", "viability at 28.5 h, 10 µM": 98.2}
{"smiles": "O=C(O)C1C2CCC(CC2)C1C(=O)N1CCN(Cc2ccccc2Cl)CC1", "note": "(centres unmarked) [CBK270336]", "viability at 28.5 h, 10 µM": 100}
{"smiles": "COCc1cc(C)nc(SCC(=O)O)c1C#N", "note": "[CBK270463]", "viability at 28.5 h, 10 µM": 88.2}
{"smiles": "O=C(O)c1ccc(N2C(=O)CC(N3CCN(CCO)CC3)C2=O)cc1", "note": "(centres unmarked) [CBK271638]", "viability at 28.5 h, 10 µM": 88.9}
{"smiles": "O=C(CSc1ncccc1C(=O)O)c1ccccc1", "note": "[CBK273178]", "viability at 28.5 h, 10 µM": 94.1}
{"smiles": "CCc1nnc(NC(=O)c2cccc(F)c2)s1", "note": "[CBK273362]", "viability at 28.5 h, 10 µM": 90.4}
{"smiles": "O=C(O)c1ccccc1SC1CC(=O)N(c2ccccc2)C1=O", "note": "(centres unmarked) [CBK273885]", "viability at 28.5 h, 10 µM": 94.6}
{"smiles": "Cc1nc2ccccc2c(C(=O)O)c1-c1ccccc1", "note": "[CBK274187]", "viability at 28.5 h, 10 µM": 91.5}
{"smiles": "CCOc1ccc(NC(=O)C2CC=CCC2C(=O)O)cc1", "note": "(centres unmarked) [CBK274682]", "viability at 28.5 h, 10 µM": 110}
{"smiles": "Cc1ccc2ncnc(NC(CC(C)C)C(=O)O)c2c1", "note": "(centres unmarked) [CBK275388]", "viability at 28.5 h, 10 µM": 109}
{"smiles": "O=C(O)C(CC1COc2ccccc2O1)C(=O)O", "note": "(centres unmarked) [CBK276280]", "viability at 28.5 h, 10 µM": 89.6}
{"smiles": "CN(Cc1ccccc1)S(=O)(=O)c1ccc(OCC(=O)O)cc1", "note": "[CBK276426]", "viability at 28.5 h, 10 µM": 97.9}
{"smiles": "O=C(O)CCCSCC(=O)Nc1ccccc1", "note": "[CBK276905]", "viability at 28.5 h, 10 µM": 88.4}
{"smiles": "O=C(NCCCn1ccnc1)c1cc2ncc(Br)cn2n1", "note": "[CBK277080]", "viability at 28.5 h, 10 µM": 97.6}
{"smiles": "COc1ccc(NC(=O)CSc2ncnc3sc(C)cc23)c(OC)c1", "note": "[CBK277541]", "viability at 28.5 h, 10 µM": 100}
{"smiles": "Fc1ccc(COc2ccccc2CNCCN2CCOCC2)cc1", "note": "[CBK278150C]", "viability at 28.5 h, 10 µM": 91.5}
{"smiles": "c1ccc2c(c1)n(CCN1CCOCC1)c1nc(C34CC5CC(CC(C5)C3)C4)cn21", "note": "[CBK278154C]", "viability at 28.5 h, 10 µM": 105}
{"smiles": "O=C(Nc1ccc2c(O)cc(S(=O)(=O)O)cc2c1)Nc1ccc2c(O)cc(S(=O)(=O)O)cc2c1", "note": "[CBK278157N]", "viability at 28.5 h, 10 µM": 91.1}
{"smiles": "Clc1ccc(OCc2ccccc2)c(CNCCN2CCOCC2)c1", "note": "[CBK278162C]", "viability at 28.5 h, 10 µM": 93.4}
{"smiles": "NNc1ccc(/C=C/c2ccc(NN)cc2S(=O)(=O)O)c(S(=O)(=O)O)c1", "note": "[CBK278163N]", "viability at 28.5 h, 10 µM": 91.1}
{"smiles": "O=S(=O)(O)c1cc(O)c2c(S(=O)(=O)O)cc(S(=O)(=O)O)cc2c1", "note": "[CBK278164N]", "viability at 28.5 h, 10 µM": 94.9}
{"smiles": "CN1C2CCC1CC(OC(=O)CN1CCCCC1)C2", "note": "(centres unmarked) [CBK278166C]", "viability at 28.5 h, 10 µM": 109}
{"smiles": "Cc1ccc(CNCCNCCO)s1", "note": "[CBK278168C]", "viability at 28.5 h, 10 µM": 108}
{"smiles": "Brc1ccc(OCc2ccccc2)c(CNCCN2CCOCC2)c1", "note": "[CBK278171C]", "viability at 28.5 h, 10 µM": 97}
{"smiles": "Cc1cc(C)c(NC(=O)C2CCCN2CCCN(C)C)c(C)c1", "note": "(centres unmarked) [CBK278172F]", "viability at 28.5 h, 10 µM": 97.1}
